Consider four molecules from patent US8637521B2, “Substituted piperazin-2,5-diones and their use as multifunctional bioactive compounds” (priority 2006, dated 2014).

“And” between values parts separate entries of the source, which are not always exact repeats. Identical values can stand only once. Square brackets hold non-standard residues; d marks the D form. Peptide text beside a SMILES is read from it.

Data set [1] has as its system Anti-OVA antibody titers. The data set is described as follows: Adjuvant activity, anti-OVA antibody titers by ELISA (Example 8). The format is in vivo, Balb/c mice. The note with it: for Stimulation index / Anti-protein antibody titer / Pool: Table 8; for Anti-protein antibody titer: one value per mouse; for Pool: pooled sera titer. How it is done: Adjuvant activity was tested on 11 groups of Balb/c mice (obtained from Stolbovaya Breeding Station). Each group consisted of 7 animals. Three immunizations were performed as follows:
• Group 1—ovalbumin 25 micrograms per animal (Mouse Nos. 1 to 7) • Group 2—ovalbumin 25 micrograms per animal+CFA (Complete Freund's adjuvant) (Mouse Nos. 8 to 14) • Group 3—ovalbumin 25 micrograms per animal+adjuvant of compound 33a 100 micrograms per animal (Mouse Nos. 15 to 21) • Group 4—ovalbumin 25 micrograms per animal+adjuvant of compound 33a 10 micrograms per animal (Mouse Nos. […]) • Group 5—ovalbumin 25 micrograms per animal+adjuvant of compound 33a 1 microgram per animal (Mouse Nos. […]) • Group 6—ovalbumin 25 micrograms per animal+adjuvant of compound 33b 100 micrograms per animal (No. 36 to 42) • Group 7—ovalbumin 25 micrograms per animal+adjuvant of compound 33b 10 micrograms per animal (Mouse Nos. 43 to 49) • Group 8—ovalbumin 25 micrograms per animal+adjuvant of compound 33b 1 microgram per animal (Mouse Nos. 50 to 56) • Group 9—ovalbumin 25 micrograms per animal+adjuvant of compound 17 100 micrograms per animal (Mouse Nos. 57 to 63) • Group 10—ovalbumin 25 micrograms per animal+adjuvant of compound 1710 micrograms per animal (Mouse Nos. 64 to 70) • Group 11—ovalbumin 25 micrograms per animal+adjuvant of compound 171 microgram per animal (Mouse Nos. 71 to 77) Second Immunization:
The same set 14 days after first immunization by injection of 12.5 micrograms of ovalbumin/mouse to mouse nos. 1 to 77.
The same set 28 days after first immunization by injection of 12.5 micrograms of ovalbumin/mouse to mouse nos. 1 to 77.
On day 35 after first immunization, blood samples from each mouse were collected.
OVA (10 micrograms/ml) solution in 0.05 M sodium carbonate buffer (pH 9.5) was added to plate wells, 0.1 ml per well and incubated at 4° C. for 16 hours. The OVA solution was then removed and the plate was washed 4 times with PBS containing 0.05% Tween-20. Such washing was performed after each incubation stage. Serial twofold dilutions of sera (starting from 1:100 or 1:1000) were added to the wells, 0.1 ml per well and incubated at 37° C. for 1 hour followed by incubation (1 hour, 37° C.) with HRP-conjugated goat anti-mouse IgG antibodies (0.1 ml, 1 mg/ml in PBS) and then with a 0.1 mL substrate solution −0.05% H2O2 and 0.05% o-phenylene diamine in 0.05M sodium citrate buffer with a pH of 4.5. The reaction was stopped by adding 100 μl of 12.5% H2SO4. Absorbance was measured at a wavelength of 492 nm using a Multiscan Plus MKII (Flow Laboratories, Great Britain). Significant anti-protein antibody titer (for individual sera) was assessed as the serum dilution produced an absorbance value of more than 0.1 ODU and the minimum exceeds three times the control level. The antibody titer was presented and −log of dilution (FIGS. 2 and 3). The stimulation index for pooled sera was calculated by dividing the test pooled sera dilution producing OD=1 by the dilution of pooled sera from mice immunized without the adjuvant, producing OD=1. The results of the adjuvant activities of cyclo-L-Ala-L-Glu-(L-Trp-OH) (Compound 17), cyclo-L-Lys(N-acetyl-Glycosamine-N-acetyl-muramil)-L-Glu-(L-Trp-OH) (Compound 33a) and cyclo-D-Lys(N-acetyl-Glycosamine-N-acetyl-muramil)-D-Glu-(L-Trp-OH) (Compound 33b) are shown in Table 7 and the adjuvant activities of cyclo [L-Lys(Palmitoyil)-L-Glu(D-Trp-OH)] (Compound 26a) and cyclo [D-Lys(Palmitoyil)-D-Glu(D-Trp-OH)] (Compound 26b) are shown in Table 8 as well as in FIG. 4 which includes the results of the adjuvant activities of cyclo-L-Lys-L-Glu-(L-Trp-OH) (compound 19). It is noted that the peptides of compounds 26a and 26b are soluble in 0.1% NH4OH at a concentration of 1 mg per 1 to 2 ml.

The nature of data set [2]: Solubility of peptides in 0.1% NH4OH. The format is physicochemical. The note with it: for solubility when titrated with 0.1% AcOH: titrated with 0.1% AcOH to pH=8.4 to 8.5.
The test system of data set [3] is hemopoietic precursor cells. In words: Exogenous spleen colonies from bone marrow irradiated ex vivo with 1 Gy. The format is in vivo. How it is done:
In this study, the method of exogenous spleen colonies was applied. A suspension of intact bone marrow cells was irradiated ex vivo in the dose of 1 Gy. Different doses of Neogen or cyclic peptides were injected IP, 1M, subcutaneous or introduced per os to lethally irradiated recipients within an hour after the injection of irradiated bone marrow. Colonies were counted on day 8. All data in each group was the mean of three tests.

Data set [4] deals with μ-receptor (isolated guinea pig ileum, GPI) (Cavia porcellus, UniProt P97266). In words: Peripheral opioid activity: inhibition of electrically-induced contractions of isolated guinea pig ileum (GPI). How it is done:
The segment of GPI about 1 cm long was placed into a 10-ml organ bath containing Krebs solution at 34° C. […] Resting tension of the organ was 1 g. The segment of GPI was stimulated by single pulses duration 1 ms with 0.1 Hz at 80 V. The solution with isolated organs was constantly aerated. The contractions were recorded in an isometrical mode by a sensor K 30 (Hugo Sachs Elektronic KG) with paper register Rikadenki-series (Japan).
The substances tested were dissolved in distilled water and added cumulatively to the organ bath at a volume of 5 to 30 mcl. Each subsequent substance was added after the isolated organs were washed 3 or 4 times for 12-15 min. On the basis of the data obtained, dose-effects curves were plotted and the activity of substances was expressed by IC50 or pD2. The pD2 index was equal to a negative decimal logarithm of the substance concentration causing a 50% of the maximal effect.
New dermorphin analogues were tested in the standard model of Guinea pig ileum binding test.
For confirmation of opioid activity, the specific antagonist naloxson was used in concentration of 10^−5M. Each molecule was tested in 5 independent replications and relative activity was calculated as negative logarithm of EC50 (pD2).

Data set [5] deals with mice F1(CBAxC57D16). In words: Analgesic activity, tail flick test, water 48° C., intraperitoneal. The class given is in vivo. As to conditions: Table 10; for Initial sensitivity level: before injection. How it is done: Two hundred and twenty mice F1(CBAxC57D16) first generation hybrids were used for testing of analgesic activity using the “tail flick” test. The water temperature was at 48° C. The maximal effect was for the period of 30 seconds. All peptides were injected intraperitoneally in the doses of 5, 10 or 20 mg/kg. Analgesic effect was estimated in the time interval of 15 to 120 min after peptide injection. Student's t-criterion was used for statistical calculations of the results. Statistical significance were at the level of p≦0.05.

Data set [6] has as its system BALB/c male mice. In words: Antinociceptive activity, tail flick test with heat radiation, intragastral or intraperitoneal. The format is in vivo. The protocol: For estimation of oral activity of novel cyclopeptides of the present invention, the “tail flick” test was used. The results were compared with those obtained using intraperitoneal administration.
Antinociceptive activity of the peptides of the present invention was assessed in experiments on BALB/c male mice weighing 22 to 24 g. The peptides were dissolved in saline and administered intraperitoneally or intragastrally.
The “Tail flick” test (D'Amour, F. E. et al. “A Method for Determining Loss of Pain Sensation”, J. Pharmacol. Exp. Ther., Vol. 72, Pages 74 to 79, 1941) was performed on an analgesimeter type 812, Hugo Sachs Electronick KG. Antinociceptive activity was defined as the absence of tail flick response on stimulation with a focused bundle of heat radiation with 6 sec at baseline response of 2.0-3.0 seconds.
Statistical treatment of the results was carried out by the Student's paired t-test.

[7] abbreviates: 100 μg per animal, no adjuvant = 1.
The mark [8] stands for this setting: OVA + adjuvant 10 μg per animal.
Setting [9] is: OVA + adjuvant 100 μg per animal.
The mark [10] stands for this setting: 100 μg per animal, no adjuvant 3.9.

Chain of μ-receptor (isolated guinea pig ileum, GPI) (P97266 whole entry): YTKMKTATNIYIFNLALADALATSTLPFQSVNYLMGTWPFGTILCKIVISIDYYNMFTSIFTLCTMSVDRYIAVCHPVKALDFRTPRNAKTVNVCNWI

As for `CCCCCCCCCCCCCCCC(=O)NCCCC[C@@H]1NC(=O)[C@H](CCC(=O)N[C@H](Cc2c[nH]c3ccccc23)C(=O)O)NC1=O` [Compound 26a, cyclo [L-Lys(Palmitoyil)-L-Glu(D-Trp-OH)]], the “adjuvant activity (FIG. 4), doses at which active” value in data set [1] is recorded as “active at 10 μg/kg”. The Stimulation index in data set [1] (1 μg per animal) is 2.0; in data set [1] (10 μg per animal) it was 6.5; in data set [1] (setting [7]), 3.3. Moreover, the Anti-protein antibody titer in data set [1] (OVA + adjuvant 1 μg per animal) is 4.8 and 5.1 (4×) and 4.5 and 4.4; in data set [1] (setting [8]), 5.5 (4×) and 5.8 and 5.7 (2×); in data set [1] (setting [9]), 4.8 (4×) and 4.4 and 5.1 and 5.4. The Pool in data set [1] (1 μg per animal) came out at 4.4; in data set [1] (10 μg per animal), 5.7; in data set [1] (setting [10]) it was 5.1. In addition, the “soluble in 0.1% NH4OH at a concentration of” value in data set [2] was 1 mg per 1 to 2 ml. In data set [2], the “solubility when titrated with 0.1% AcOH” value is “remain soluble”.
Take `COC(=O)[C@H](Cc1c[nH]c2ccccc12)NC(=O)CC[C@@H]1NC(=O)[C@H](C)NC1=O` [Compound 16, Cyclo-L-Ala-L-Glu-(L-Trp-OMe)]: in data set [3] (100 μg/kg per/os), the “% stimulation” value is recorded as 74.8% and the Colony count is 8.9 ± 0.5. In addition, in data set [3] (100 μg/kg s/c), the “% stimulation” value is 67.2% and the Colony count worked out at 8.0 ± 0.5.
`CNC(=O)[C@H](CO)NC(=O)[C@@H]1CCCN1C(=O)[C@H](Cc1ccc(O)cc1)NC(=O)[C@@H](C)NC(=O)[C@H](Cc1ccccc1)NC(=O)[C@@H](C)NC(=O)[C@@H](N)Cc1ccc(O)cc1` [Compound 50, H-Tyr-D-Ala-Phe-D-Ala-Tyr-Pro-Ser-NH-CH3, reference compound] (H-Y[dA]F[dA]YPS-NHMe): the “Value of pD2 (M ± m)” value in data set [4] (negative logarithm of EC50) is 7.95 ± 0.07. Also, the EC50 in data set [4] (read-out: Median EC50 in M, concentration reducing contraction amplitude by 50%, 5 replications) was determined as 9.5 nM. Also, the “Initial sensitivity level” value was 3.0 ± 0.1 s in data set [5] (5 mg/kg group) and 2.9 ± 0.2 s in data set [5] (10 mg/kg group). In addition, the “Effect duration” value was 9.0 ± 1.7 s in data set [5] (5 mg/kg i.p., 15 min after injection); 10.3 ± 2.6 s in data set [5] (5 mg/kg i.p., 30 min); 14.3 ± 3.7 s in data set [5] (5 mg/kg i.p., 45 min); 10.8 ± 1.9 s in data set [5] (5 mg/kg i.p., 60 min); 6.4 ± 1.5 s in data set [5] (5 mg/kg i.p., 90 min); 3.5 ± 0.2 s in data set [5] (5 mg/kg i.p., 120 min). For the same molecule, the “Effect duration” value came to 5.9 ± 0.7 s in data set [5] (10 mg/kg i.p., 15 min); 10.7 ± 0.8 s in data set [5] (10 mg/kg i.p., 30 min); 12.2 ± 2.6 s in data set [5] (10 mg/kg i.p., 45 min); 7.2 ± 1.2 s in data set [5] (10 mg/kg i.p., 60 min); 6.9 ± 1.4 s in data set [5] (10 mg/kg i.p., 90 min); 3.7 ± 0.4 s in data set [5] (10 mg/kg i.p., 120 min). In addition, the “Effect duration” value was found to be 3.3 ± 0.6 s in data set [6] (Table 11, oral 50 mg/kg, 15 min, cut-off 6 sec); 2.3 ± 0.1 s in data set [6] (Table 11, oral 50 mg/kg, 30 min); 4.3 ± 0.6 s in data set [6] (Table 11, oral 50 mg/kg, 90 min); 3.6 ± 0.7 s in data set [6] (Table 12, intraperitoneal 10 mg/kg, 15 min, cut-off 6 sec). For the same molecule, the “Initial sensitivity level, mean” value in data set [6] (Table 11, oral 50 mg/kg group, before administration) is 2.6 ± 0.1 s; in data set [6] (Table 12, intraperitoneal 10 mg/kg group, before injection) it was 2.0 ± 0.1 s.
Take `CCCCCCCCCCCCCCCC(=O)NCCCC[C@H]1NC(=O)[C@@H](CCC(=O)N[C@H](Cc2c[nH]c3ccccc23)C(=O)O)NC1=O` [Compound 26b, cyclo [D-Lys(Palmitoyil)-D-Glu(D-Trp-OH)]]: the “adjuvant activity (FIG. 4), doses at which active” value in data set [1] is recorded as “not an active compound”. Moreover, the figures for the Stimulation index in data set [1] (1 μg per animal), in data set [1] (10 μg per animal) and in data set [1] (setting [7]) were 4.9, 2.7 and 2.6, respectively. Besides, the Anti-protein antibody titer in data set [1] (OVA + adjuvant 1 μg per animal) was 5.4 (2×) and 4.5 and 3.8 and 3.5 and 5.1; in data set [1] (setting [8]), 4.7 (3×) and 5.1 and 4.8 (2×); in data set [1] (setting [9]) it was 4.5 (2×) and 4.8 (3×) and 4.2. For the same molecule, the Pool was 5.1 in data set [1] (1 μg per animal), 4.8 in data set [1] (10 μg per animal) and 4.8 in data set [1] (setting [10]). Moreover, in data set [2], the “soluble in 0.1% NH4OH at a concentration of” value was 1 mg per 1 to 2 ml. Moreover, in data set [2], the “solubility when titrated with 0.1% AcOH” value is on record as “remain soluble”.
